Measurements reported in patent publication US20240058340A1, “COMPOSITIONS AND METHODS FOR TREATING CANCER” (The Regents of the University of California, priority 2020, published 2024).

Columns and labels:
[1] = system: PC-9 (EGFR exon 19 deletion); assay: Cellular IC50, Cell Titer Glo, PC-9 cell line; type: cell-based; conditions: Homo sapiens, PC-9 cells, 72 hours
Description: (§1) The PC-9 cell line was purchased from Sigma, and the HCC827 cell line was purchased from ATCC. Each cell line was maintained at ≤passage 10 at 37° C. in a humidified incubator with 5% CO2. Cells were plated in 96-well optical bottom plates (Corning #3903; Corning, NY) at a cell density of 5,000 cells/well, allowed to adhere for minimally 16 hours, and subsequently treated with the test compounds using an 11-point serial dilution (1:3) in duplicate using an HP D300 digital 4 dispenser (Tecan, Morrisville, NC). 72 hours after addition of the test compounds, Cell Titer Glo reagent (Promega, Madison, WI) was added to the plate according to manufacturer's protocol and luminescence measured using a Spectramax M5 (Molecular Devices, San Jose, CA). IC50s were calculated using the 4-parameter variable slope curve fit using the equation below where, Y and X are variables plotted, Top and Bottom are plateaus in the units of the Y axis, LogIC50 is the Log transformation of the IC50 value and HillSlope is the Hill Slope for the curve and describes curve steepness (GraphPad Prism, version 6.07, GraphPad Software, Inc.). Y=Bottom+(Top−Bottom)/(1+10((LogIC50−X)*HillSlope))).

[2] = system: HCC827 (EGFR exon 19 deletion); assay: Cellular IC50, Cell Titer Glo, HCC827 cell line; type: cell-based; conditions: Homo sapiens, HCC827 cells, 72 hours
Description: as §1

[3] = Brain penetration in non-tumor bearing mice; type: in vivo; conditions: for Brain Penetration (% of plasma): brain to plasma percentage; for Kpuu (Avg): unbound ratio of drug in brain to plasma
Description: Disclosed in table 5 Brain to plasma percentages and unbound ratios of drugs in brain to plasma of indicated drugs in non-tumor bearing mice

SMILES | IC50 [1] | IC50 [2] | Brain Penetration (% of plasma) [3] | Kpuu (Avg) [3]
CN1CCC2CN(C[C@H]3COc4cc5ncnc(Nc6cccc(Br)c6F)c5cc4O3)CC21 (stereo partly shown) | 12.9 nM | 5.9 nM |  | 
CN1CC2CN(C[C@H]3COc4cc5ncnc(Nc6cccc(Br)c6F)c5cc4O3)CC2C1 (stereo partly shown) | 21.7 nM | 14.3 nM |  | 
CN1CCN(C[C@H]2COc3cc4ncnc(Nc5cccc(Br)c5F)c4cc3O2)CCC1C(F)(F)F (stereo partly shown) | 54 nM | 36.9 nM |  | 
CN1CCN(C[C@H]2COc3cc4ncnc(Nc5cccc(Br)c5F)c4cc3O2)CC(F)(F)C1 | 140 nM | 50.6 nM |  | 
CN1CCC12CN(C[C@H]1COc3cc4ncnc(Nc5cccc(Br)c5F)c4cc3O1)C2 | 9.4 nM | 7 nM |  | 
CN1CC2(C1)CN(C[C@H]1COc3cc4ncnc(Nc5cccc(Br)c5F)c4cc3O1)C2 | 10.1 nM | 5.9 nM |  | 
C#Cc1cccc(Nc2ncnc3cc4c(cc23)OCCO4)c1 [JGK005] |  |  | 64.8 % of plasma | 0.491
Fc1c(Cl)cccc1Nc1ncnc2cc3c(cc12)OCCO3 [JGK010] |  |  | 106.4 % of plasma | 1.045
Fc1cccc(Nc2ncnc3cc4c(cc23)OCCO4)c1F [JGK028] |  |  | 106.2 % of plasma | 1.037
C#Cc1cccc(Nc2ncnc3cc4c(cc23)OCCO4)c1F [JGK038] |  |  | 84.3 % of plasma | 0.575
Fc1c(I)cccc1Nc1ncnc2cc3c(cc12)OCCO3 [JGK042] |  |  | 167.6 % of plasma | 1.033
